Patent publication US20170349540A1, “HISTONE DEACETYLASE INHIBITORS” (The General Hospital Corporation, priority 2014, published 2017)
pIC50: −log10 of the molar value.

Columns and labels:
HDAC2 = target: T1, HDAC2 (Homo sapiens, UniProt Q92769); test: HDAC inhibition assay (Caliper EZ reader, FAM-labeled peptide substrate); format: biochemical; settings: recombinant human HDAC, 60 min at room temperature, 2 μM substrate
T1 construct: purchased BPS Bioscience
Experimental: (§1) All recombinant human HDACs were purchased from BPS Bioscience. The substrates, Broad Substrate A and Broad Substrate B (see International App. No. WO 2013/067391), were synthesized in-house. All other reagents were purchased from Sigma-Aldrich. […] Reactions were terminated by the addition of 1.5 μM of the known pan-HDAC inhibitor LBH-589 (panobinostat). […] The reactions were performed in duplicate for each sample.

HDAC9 = target: T2, HDAC9 (Homo sapiens, UniProt Q9UKV0); test: as above; format: biochemical; settings: recombinant human HDAC, 60 min at room temperature, 2 μM substrate
T2 construct: purchased BPS Bioscience
Experimental: as §1

HDAC6 = target: T3, HDAC6 (Homo sapiens, UniProt Q9UBN7); test: as above; format: biochemical; settings: recombinant human HDAC, 60 min at room temperature, 2 μM substrate
T3 construct: purchased BPS Bioscience
T3 sequence (Q9UBN7 1-1215): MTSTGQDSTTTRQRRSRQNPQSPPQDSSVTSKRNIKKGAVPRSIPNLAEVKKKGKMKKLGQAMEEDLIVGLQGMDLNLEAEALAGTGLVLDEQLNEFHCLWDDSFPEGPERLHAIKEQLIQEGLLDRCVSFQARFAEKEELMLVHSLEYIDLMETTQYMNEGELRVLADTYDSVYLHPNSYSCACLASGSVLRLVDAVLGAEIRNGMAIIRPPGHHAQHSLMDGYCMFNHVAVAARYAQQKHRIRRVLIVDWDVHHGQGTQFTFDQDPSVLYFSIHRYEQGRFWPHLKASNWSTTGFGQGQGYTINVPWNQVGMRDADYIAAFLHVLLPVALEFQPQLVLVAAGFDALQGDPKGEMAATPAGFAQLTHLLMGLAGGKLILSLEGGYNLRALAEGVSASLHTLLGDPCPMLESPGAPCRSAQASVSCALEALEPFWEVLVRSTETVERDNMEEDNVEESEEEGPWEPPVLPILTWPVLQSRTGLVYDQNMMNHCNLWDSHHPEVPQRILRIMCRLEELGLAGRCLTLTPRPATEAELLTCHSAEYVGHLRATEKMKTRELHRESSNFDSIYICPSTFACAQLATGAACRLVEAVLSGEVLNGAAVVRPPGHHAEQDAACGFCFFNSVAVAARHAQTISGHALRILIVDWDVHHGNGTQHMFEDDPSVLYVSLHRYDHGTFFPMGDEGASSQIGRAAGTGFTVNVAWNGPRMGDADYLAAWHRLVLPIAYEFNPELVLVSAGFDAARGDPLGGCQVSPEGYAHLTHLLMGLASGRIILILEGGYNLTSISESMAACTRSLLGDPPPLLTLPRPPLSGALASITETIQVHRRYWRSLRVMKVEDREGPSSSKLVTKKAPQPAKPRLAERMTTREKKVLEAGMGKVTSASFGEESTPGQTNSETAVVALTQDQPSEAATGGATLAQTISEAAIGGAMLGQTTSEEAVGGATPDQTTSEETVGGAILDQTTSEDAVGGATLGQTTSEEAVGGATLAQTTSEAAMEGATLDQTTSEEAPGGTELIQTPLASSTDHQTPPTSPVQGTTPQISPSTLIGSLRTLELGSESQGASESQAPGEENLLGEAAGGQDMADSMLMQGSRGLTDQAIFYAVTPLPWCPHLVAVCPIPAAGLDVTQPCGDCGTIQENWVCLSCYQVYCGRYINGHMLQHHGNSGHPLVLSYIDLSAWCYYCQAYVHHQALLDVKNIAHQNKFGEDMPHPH
Experimental: as §1

HDAC3 = target: T4, HDAC3 (Homo sapiens, UniProt O15379); test: as above; format: biochemical; settings: recombinant human HDAC, 60 min at room temperature, 2 μM substrate
T4 construct: purchased BPS Bioscience
Experimental: as §1

HDAC8 = target: T5, HDAC8 (Homo sapiens, UniProt Q9BY41); test: as above; format: biochemical; settings: recombinant human HDAC, 60 min at room temperature, 2 μM substrate
T5 construct: purchased BPS Bioscience
T5 sequence (Q9BY41 1-377): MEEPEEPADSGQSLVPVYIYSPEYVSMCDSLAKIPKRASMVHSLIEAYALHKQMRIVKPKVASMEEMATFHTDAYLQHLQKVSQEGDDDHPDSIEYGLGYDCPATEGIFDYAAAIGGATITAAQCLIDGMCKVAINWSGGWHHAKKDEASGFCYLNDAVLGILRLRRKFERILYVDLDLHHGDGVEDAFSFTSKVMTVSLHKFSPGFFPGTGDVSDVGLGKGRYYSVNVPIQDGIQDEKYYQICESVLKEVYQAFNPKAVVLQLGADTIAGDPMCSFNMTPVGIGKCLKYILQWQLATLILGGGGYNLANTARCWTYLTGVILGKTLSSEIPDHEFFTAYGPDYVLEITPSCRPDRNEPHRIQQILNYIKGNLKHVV
Experimental: as §1

HDAC5 = target: T6, HDAC5 (Homo sapiens, UniProt Q9UQL6); test: as above; format: biochemical; settings: recombinant human HDAC, 60 min at room temperature, 2 μM substrate
T6 construct: purchased BPS Bioscience
Experimental: as §1

HDAC4 = target: T7, HDAC4 (Homo sapiens, UniProt P56524); test: as above; format: biochemical; settings: recombinant human HDAC, 60 min at room temperature, 2 μM substrate
T7 construct: purchased BPS Bioscience
Experimental: as §1

HDAC7 = target: T8, HDAC7 (Homo sapiens, UniProt Q8WUI4); test: as above; format: biochemical; settings: recombinant human HDAC, 60 min at room temperature, 2 μM substrate
T8 construct: purchased BPS Bioscience
T8 sequence (Q8WUI4 1-952): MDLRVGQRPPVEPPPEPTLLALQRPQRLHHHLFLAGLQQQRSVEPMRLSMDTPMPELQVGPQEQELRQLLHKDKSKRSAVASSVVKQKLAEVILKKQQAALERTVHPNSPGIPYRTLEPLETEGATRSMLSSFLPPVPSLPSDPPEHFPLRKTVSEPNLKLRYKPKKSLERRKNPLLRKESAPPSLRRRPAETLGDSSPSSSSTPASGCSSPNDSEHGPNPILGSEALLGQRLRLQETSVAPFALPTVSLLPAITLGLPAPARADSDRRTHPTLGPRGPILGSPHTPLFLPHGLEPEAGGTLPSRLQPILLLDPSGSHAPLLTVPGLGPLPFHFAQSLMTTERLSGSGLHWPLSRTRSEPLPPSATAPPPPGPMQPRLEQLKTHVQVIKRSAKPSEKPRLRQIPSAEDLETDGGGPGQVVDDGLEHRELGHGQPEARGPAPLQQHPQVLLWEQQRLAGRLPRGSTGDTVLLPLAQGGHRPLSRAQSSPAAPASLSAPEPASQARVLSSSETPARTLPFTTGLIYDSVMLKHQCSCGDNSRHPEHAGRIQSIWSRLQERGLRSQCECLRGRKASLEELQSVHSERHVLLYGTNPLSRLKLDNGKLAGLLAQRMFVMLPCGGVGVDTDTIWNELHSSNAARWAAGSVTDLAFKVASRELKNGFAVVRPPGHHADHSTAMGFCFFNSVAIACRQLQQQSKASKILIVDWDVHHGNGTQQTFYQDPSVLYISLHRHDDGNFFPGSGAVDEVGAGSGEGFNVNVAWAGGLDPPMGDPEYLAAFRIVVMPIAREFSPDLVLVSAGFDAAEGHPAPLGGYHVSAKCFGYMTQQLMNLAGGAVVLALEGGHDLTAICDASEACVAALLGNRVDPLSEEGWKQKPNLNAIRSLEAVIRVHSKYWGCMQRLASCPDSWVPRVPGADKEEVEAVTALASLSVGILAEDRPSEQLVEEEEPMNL
Experimental: as §1

HDAC1 = target: T9, HDAC1 (Homo sapiens, UniProt Q13547); test: as above; format: biochemical; settings: recombinant human HDAC, 60 min at room temperature, 2 μM substrate
T9 construct: purchased BPS Bioscience
Experimental: as §1

HDAC = test: In vivo PET imaging: blocking of whole brain uptake of the radiolabeled compound of Example 3; parameters: species or system rat; settings: self-blocking, 5 min pretreatment with 1.0 μg-2.0 mg/kg unlabeled compound; radiotracer of Example 3
Experimental: Male Sprague-Dawley rats were utilized in pairs, anesthetized with inhalational isoflurane (Forane) at 3% in a carrier of 1.5-2 L/min medical oxygen and maintained at 2% isoflurane for the duration of the scan. The rats were arranged head-to-head in a Triumph Trimodality PET/CT/SPECT scanner (Gamma Medica, Northridge, Calif.). Rats were injected standard references or vehicle via a lateral tail vein catheterization at the start of Positron Emission Tomography (PET) acquisition. Dynamic PET acquisition lasted for 60 min and was followed by computed tomography (CT) for anatomic co-registration. PET data were reconstructed using a 3D-MLEM method resulting in a full width at half-maximum resolution of 1 mm. Reconstructed images were exported from the scanner in DICOM format along with an anatomic CT for rodent studies. These files were imported to PMOD (PMOD Technologies, Ltd.) and manually coregistered using six degrees of freedom.
Volumes of interest (VOIs) were drawn manually as spheres in brain regions guided by high resolution CT structural images and summed PET data, with a radius no less than 1 mm to minimize partial volume effects. Time-activity curves (TACs) were exported in terms of decay corrected activity per unit volume at specified time points with gradually increasing intervals. The TACs were expressed as percent injected dose per unit volume for analysis.
Summed PET images following injection with the ^11C radiolabeled (E)-3-(4-((((1r,3R,5S)-adamantan-1-ylmethyl)(methyl)amino)methyl)phenyl)-N-hydroxyacrylamide (Example 3) at baseline or after 5 minutes pretreatment with 0.5 or 2.0 mg/kg unlabeled (E)-3-(4-((((1 r,3R,5 S)-adamantan-1-ylmethyl) (methyl)amino)methyl)phenyl)-N-hydroxyacrylamide illustrate brain uptake and self-blocking, as shown in FIG. 1A. Whole-brain tracer uptake levels, normalized to uptake at 10 min, were altered by 10-40% in self-blocking experiments with 5 min pretreatment with 1.0 μg-2.0 mg/kg unlabeled (E)-3-(4-((((1r,3R,5S)-adamantan-1-ylmethyl) (methyl)amino)methyl)phenyl)-N-hydroxyacrylamide, as shown in FIGS. 1B and 1C. This quantification provides a means to measure occupancy of HDAC targets on the basis of blocked binding of the radiolabeled compound of Example 3.
Whole brain uptake of the radiotracer of Example 3 was measured 4 h after acute systemic treatment.

T9 sequence (Q13547 whole entry): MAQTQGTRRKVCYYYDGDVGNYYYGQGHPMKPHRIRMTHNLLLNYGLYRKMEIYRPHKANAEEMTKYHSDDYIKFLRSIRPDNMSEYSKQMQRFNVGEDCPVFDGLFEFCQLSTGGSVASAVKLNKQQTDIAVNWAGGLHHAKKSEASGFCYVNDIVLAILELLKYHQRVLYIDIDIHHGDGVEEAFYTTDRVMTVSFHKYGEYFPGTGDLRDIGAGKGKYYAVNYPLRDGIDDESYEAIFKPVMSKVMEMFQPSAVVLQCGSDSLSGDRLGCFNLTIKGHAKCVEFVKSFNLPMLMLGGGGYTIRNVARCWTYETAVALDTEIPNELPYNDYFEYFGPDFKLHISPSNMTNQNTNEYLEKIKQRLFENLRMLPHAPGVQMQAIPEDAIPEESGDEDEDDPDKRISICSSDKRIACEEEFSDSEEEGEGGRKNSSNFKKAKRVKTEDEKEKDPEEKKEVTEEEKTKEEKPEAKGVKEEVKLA
T4 sequence (O15379 whole entry): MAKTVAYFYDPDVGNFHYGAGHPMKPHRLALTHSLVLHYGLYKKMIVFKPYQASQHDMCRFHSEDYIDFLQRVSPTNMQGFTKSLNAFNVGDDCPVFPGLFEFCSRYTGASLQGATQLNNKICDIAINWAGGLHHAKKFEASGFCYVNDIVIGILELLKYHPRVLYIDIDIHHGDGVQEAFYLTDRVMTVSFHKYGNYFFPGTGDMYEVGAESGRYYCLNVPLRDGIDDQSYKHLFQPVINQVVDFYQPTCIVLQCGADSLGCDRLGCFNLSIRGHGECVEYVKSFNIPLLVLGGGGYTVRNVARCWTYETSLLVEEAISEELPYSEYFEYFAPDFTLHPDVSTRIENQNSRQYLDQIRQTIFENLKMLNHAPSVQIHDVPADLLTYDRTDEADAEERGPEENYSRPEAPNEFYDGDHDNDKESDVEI
T4 sequence (Q9Y618 395-489 partner limits assumed): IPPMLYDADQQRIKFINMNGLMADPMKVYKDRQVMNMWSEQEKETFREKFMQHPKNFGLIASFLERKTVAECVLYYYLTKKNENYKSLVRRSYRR
T6 sequence (Q9UQL6 whole entry): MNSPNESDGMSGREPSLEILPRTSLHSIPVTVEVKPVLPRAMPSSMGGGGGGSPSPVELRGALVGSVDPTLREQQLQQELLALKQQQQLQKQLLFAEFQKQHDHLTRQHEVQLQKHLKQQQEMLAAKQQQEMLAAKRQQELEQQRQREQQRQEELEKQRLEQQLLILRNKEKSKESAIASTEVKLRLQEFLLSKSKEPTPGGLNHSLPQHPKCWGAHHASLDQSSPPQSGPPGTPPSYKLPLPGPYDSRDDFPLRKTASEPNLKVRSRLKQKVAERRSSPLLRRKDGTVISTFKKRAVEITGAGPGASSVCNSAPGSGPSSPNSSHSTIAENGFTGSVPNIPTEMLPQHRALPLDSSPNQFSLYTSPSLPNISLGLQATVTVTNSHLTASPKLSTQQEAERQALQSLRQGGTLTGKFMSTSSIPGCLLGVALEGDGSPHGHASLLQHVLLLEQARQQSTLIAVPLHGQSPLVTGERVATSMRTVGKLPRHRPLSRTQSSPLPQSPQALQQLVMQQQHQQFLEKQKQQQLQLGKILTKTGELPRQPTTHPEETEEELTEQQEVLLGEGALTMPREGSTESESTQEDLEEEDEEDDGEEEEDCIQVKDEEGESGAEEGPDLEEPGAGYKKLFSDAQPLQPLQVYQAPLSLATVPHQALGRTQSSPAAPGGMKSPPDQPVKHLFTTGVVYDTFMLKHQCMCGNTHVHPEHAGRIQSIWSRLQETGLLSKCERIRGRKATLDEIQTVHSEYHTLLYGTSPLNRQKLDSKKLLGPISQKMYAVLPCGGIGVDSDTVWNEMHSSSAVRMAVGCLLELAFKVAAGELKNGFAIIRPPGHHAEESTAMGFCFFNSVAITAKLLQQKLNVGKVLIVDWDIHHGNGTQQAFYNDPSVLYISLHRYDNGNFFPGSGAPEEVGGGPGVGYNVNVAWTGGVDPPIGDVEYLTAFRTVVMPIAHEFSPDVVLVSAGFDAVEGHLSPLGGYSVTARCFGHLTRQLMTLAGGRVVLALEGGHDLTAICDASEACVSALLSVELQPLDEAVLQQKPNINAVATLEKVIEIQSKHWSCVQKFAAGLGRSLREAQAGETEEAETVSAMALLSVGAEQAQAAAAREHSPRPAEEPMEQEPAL
T1 sequence (Q92769 whole entry): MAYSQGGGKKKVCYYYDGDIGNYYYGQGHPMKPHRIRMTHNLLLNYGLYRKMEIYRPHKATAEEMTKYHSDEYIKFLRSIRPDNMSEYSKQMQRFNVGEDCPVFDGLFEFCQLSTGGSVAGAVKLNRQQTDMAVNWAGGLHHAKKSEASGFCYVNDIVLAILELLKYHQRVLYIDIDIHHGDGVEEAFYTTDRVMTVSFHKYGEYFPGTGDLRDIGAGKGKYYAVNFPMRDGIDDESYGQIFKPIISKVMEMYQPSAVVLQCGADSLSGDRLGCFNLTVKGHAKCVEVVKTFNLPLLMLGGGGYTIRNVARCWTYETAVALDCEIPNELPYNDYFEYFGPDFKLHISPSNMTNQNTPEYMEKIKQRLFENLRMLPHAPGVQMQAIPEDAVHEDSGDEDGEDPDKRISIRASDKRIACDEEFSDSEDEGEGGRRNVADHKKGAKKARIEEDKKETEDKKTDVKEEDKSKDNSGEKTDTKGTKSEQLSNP
T7 sequence (P56524 whole entry): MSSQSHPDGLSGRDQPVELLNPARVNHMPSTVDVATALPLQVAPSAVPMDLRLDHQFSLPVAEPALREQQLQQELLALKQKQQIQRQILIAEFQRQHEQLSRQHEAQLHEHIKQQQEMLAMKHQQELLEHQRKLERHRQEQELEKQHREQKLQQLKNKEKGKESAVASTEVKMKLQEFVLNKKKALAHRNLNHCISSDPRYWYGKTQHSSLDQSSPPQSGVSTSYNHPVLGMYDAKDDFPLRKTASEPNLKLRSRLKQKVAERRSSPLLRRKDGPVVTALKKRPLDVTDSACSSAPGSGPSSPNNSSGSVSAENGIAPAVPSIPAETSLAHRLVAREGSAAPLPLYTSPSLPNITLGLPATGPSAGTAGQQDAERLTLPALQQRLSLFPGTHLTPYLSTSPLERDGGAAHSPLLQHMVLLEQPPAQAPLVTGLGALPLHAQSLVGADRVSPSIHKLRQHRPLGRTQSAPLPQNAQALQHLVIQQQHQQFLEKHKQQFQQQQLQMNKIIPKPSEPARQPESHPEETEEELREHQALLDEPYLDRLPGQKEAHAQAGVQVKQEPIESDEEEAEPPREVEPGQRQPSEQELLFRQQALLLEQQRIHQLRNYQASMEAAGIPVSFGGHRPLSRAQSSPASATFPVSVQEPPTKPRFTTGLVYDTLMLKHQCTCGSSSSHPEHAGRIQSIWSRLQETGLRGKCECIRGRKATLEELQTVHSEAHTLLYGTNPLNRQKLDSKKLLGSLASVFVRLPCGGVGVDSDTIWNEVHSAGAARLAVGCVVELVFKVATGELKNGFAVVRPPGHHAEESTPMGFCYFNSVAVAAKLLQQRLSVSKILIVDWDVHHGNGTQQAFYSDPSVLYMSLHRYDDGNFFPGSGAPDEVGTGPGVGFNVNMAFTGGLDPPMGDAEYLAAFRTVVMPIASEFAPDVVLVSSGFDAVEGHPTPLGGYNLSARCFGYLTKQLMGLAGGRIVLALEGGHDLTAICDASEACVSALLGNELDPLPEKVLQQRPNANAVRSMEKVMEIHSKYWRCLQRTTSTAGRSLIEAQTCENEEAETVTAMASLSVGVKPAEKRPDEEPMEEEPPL
T2 sequence (Q9UKV0 whole entry): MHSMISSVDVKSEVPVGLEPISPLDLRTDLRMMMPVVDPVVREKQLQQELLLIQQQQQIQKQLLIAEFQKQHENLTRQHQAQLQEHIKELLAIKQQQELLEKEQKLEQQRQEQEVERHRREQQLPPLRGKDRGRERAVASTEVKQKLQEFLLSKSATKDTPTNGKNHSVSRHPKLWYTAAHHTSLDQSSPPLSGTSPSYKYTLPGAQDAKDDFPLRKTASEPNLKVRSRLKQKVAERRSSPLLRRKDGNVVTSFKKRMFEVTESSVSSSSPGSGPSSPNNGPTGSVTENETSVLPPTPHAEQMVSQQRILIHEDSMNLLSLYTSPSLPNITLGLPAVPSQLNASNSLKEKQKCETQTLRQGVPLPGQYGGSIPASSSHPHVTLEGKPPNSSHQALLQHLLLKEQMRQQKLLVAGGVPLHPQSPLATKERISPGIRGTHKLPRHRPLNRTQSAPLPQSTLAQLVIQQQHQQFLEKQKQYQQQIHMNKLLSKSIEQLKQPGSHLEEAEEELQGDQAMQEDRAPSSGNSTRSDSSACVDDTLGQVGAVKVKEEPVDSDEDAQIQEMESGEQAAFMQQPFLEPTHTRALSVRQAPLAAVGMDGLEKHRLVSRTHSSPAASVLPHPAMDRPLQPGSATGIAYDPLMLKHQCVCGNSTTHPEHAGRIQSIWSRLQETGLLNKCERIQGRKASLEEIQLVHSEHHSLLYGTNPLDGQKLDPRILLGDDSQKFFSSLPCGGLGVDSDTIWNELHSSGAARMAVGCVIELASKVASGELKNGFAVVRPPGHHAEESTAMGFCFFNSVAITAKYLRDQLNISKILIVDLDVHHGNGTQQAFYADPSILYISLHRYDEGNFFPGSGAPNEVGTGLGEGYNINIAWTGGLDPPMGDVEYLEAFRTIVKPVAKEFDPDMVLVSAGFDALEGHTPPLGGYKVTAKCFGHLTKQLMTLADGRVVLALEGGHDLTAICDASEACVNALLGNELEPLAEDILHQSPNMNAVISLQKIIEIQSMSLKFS

| pIC50 (HDAC2) | pIC50 (HDAC9) | pIC50 (HDAC6) | pIC50 (HDAC3) | pIC50 (HDAC8) | pIC50 (HDAC5) | pIC50 (HDAC4) | pIC50 (HDAC7) | pIC50 (HDAC1) | Structure (SMILES) | Whole-brain tracer uptake levels, normalized to uptake at 10 min, altered by (HDAC) |
| --- | --- | --- | --- | --- | --- | --- | --- | --- | --- | --- |
| 6.19 | < 4.52 | 6.51 | 6.33 | < 4.52 | < 5.30 | < 4.92 | < 4.52 | 6.65 | O=C(/C=C/c1ccc(CN(CCF)CC23CC4CC(CC(C4)C2)C3)cc1)NO |  |
| 8.19 | < 4.30 | < 4.40 | 9.30 | < 5.30 | 5.37 | < 4.15 | < 4.15 | 9.10 | O=C(/C=C/c1ccc(CNCC23CC4CC(CC(C4)C2)C3)c(F)c1)NO |  |
|  |  |  |  |  |  |  |  |  | CN(Cc1ccc(/C=C/C(=O)NO)cc1)CC12CC3CC(CC(C3)C1)C2 [Example 1, (E)-3-(4-((((1r,3R,5S)-adamantan-1-ylmethyl)(methyl)amino)methyl)phenyl)-N-hydroxyacrylamide] | 10-40% |
| 6.22 |  | < 5.00 | 6.67 | < 4.40 | < 4.40 |  | < 4.40 | 6.83 | CN(Cc1ccc(/C=C/C(=O)Nc2ccccc2N)cc1)CC12CC3CC(CC(C3)C1)C2 [drawing 61] |  |
